The values that follow come from patent publication US6407141B1 (priority 1995, dated 2002).

The test system of one data set is melanoma (mouth tumor). Nature of the data set: case study, Irish Setter with melanoma, oxalic acid diet and food additive. Type of data set: in vivo, canine. The following applies: eleven month period; diet, then oxalic acid dihydrate 1 gram down to 20 mg per day in food.
A short description of data set [1]: case study, dog at a pound given oxalic acid dihydrate gel cap for seven days. Type of data set: in vivo. The following applies: one gram in a gel cap one hour prior to meal time for seven days.
The test system of data set [2] is bone cancer (sarcoma) of the left hind leg. Description: case study, Doberman pincher with bone cancer, oxalic acid enhanced dogfood. Type of data set: in vivo, dog. The source says: In accordance with another case study, a Doberman […] diagnosed with bone cancer (sarcoma) of the left hind leg. The dog had previously been put on medication for arthritis because it would not use or lower its left hind leg. […] A few days later, the dog began taking steps on the left hind leg with a slight limp.

The subject of data set [3] is cold, flu virus, sore throat. Description: mouth rinse and gargle case studies, cold, flu, sore throat. The following applies: rinse two minutes and gargle three times a day for four days; two cases. Format: in vivo, human. The text has this:
On another occasion while visiting the veterinary clinic, the inventor noticed the receptionist had symptoms of a cold, and upon questioning the receptionist learned […] was treating a cold which was into the start of the second week. […] The inventor advised the receptionist that, each morning immediately upon rising, and prior to any other substance being put into the mouth, they should take approximately one teaspoon of the solution in their mouth, holding it for a minimum of two minutes, swishing the solution gently around the mouth, then discarding the solution and rinsing the mouth with warm water two or three times. The procedure began Friday night and the following Monday morning the cold was gone.
The dilute solution was the bench mark solution.
On still another occasion a pharmacist, consultant to the inventor, awoke at 2:30 a.m. with a very sore throat, unable to swallow without severe pain, remembered the inventor's description of their own experience, mixed two teaspoons of the bench mark mixture and two teaspoons of warm water, held the mixture in the mouth for two minutes and gargled well. After a 15-minute wait, repeated the procedure and then retired. Upon arising at 6:30 a.m., repeated the procedure one time before leaving for the pharmacy.

Data set [4] can be described thus: canine urine oxalate count. The following applies: about 1 gram per day intake; 25 Kilogram canine.
In data set [5] the test system is leukemia with tumors in lymph nodes. Nature of the data set: case study, leukemia with tumors in lymph nodes. Type of data set: in vivo, human. The following applies: after 5-7 days; about 1 to 1 ½ g/day in dilute solution, almost no blockers. The text has this: An adult was terminally ill with leukemia with tumors in their lymph nodes and they had stopped chemotherapy treatment. […] It was hard for them to swallow so they were on a liquid diet because of the swelling of the lymph nodes in and around their mouth and throat.

Data set [6] concerns tarter or plaque, gums and mouth tissue. Nature of the data set: daily use of dental hygiene composition by the inventor. Type of data set: in vivo, human. The following applies: 150 mg diluted in 300 ml of distilled water. The text has this:
The inventor continued to search for other uses of the “miracle bullet” oxalic acid or oxalate compositions for treating the body and immune system. […] There was no more occasional bleeding of the gums during daily brushing, and the surface of the tongue appeared to be more smooth with an even coloring across the surface.

Data set [7] relates to gingivitis, tarter and plaque. Description: daily brushing of dog's teeth with oxalic acid solution. Type of data set: in vivo. The following applies: 150 mg in 300 ml of distilled water, one week. The text has this:
At the completion of the exam, rather than treat the gingivitis with an injection of antibacterial medication followed by oral medication, it was agreed the inventor would commence daily brushing of the dog's teeth. […] The inventor began a daily brushing of the dog's teeth paying particular attention to the upper gums. The brushing was done first thing in the morning before the dog had anything to eat or drink. After the fourth day of brushing, the inventor/owner of the dog, noticed the redness of the gingivitis was disappearing and after one week returned the dog to the veterinarian for a follow-up exam. […] The veterinarian recommended cleaning one side of the dogs upper teeth and continuing with the daily brushing routine.

The conditions of data set [8]: FIG. 1; cited from earlier work.
For data set [9] the following is noted: man; cited from earlier work.
For another data set, the system named is viral pneumonia. Nature of the data set: mouthwash procedure in viral pneumonia. Type of data set: in vivo, human. Conditions: 150 mg in 300 ml of distilled water, rinse and gargle three times daily, Friday to Sunday; antibiotics also given. The method, then: Also, their spouse was diagnosed with viral pneumonia by X-ray examination. They were given antibiotics to ward off infections because of a weakened immune system. […] They started the recommended procedure of approximately 2 teaspoons of wash, holding in mouth for 2 minutes then gargle, spit out wash, then rinsing mouth at least twice with warm tap water. The procedure was repeated first thing in the morning immediately after rising and before anything else was put in mouth. It was done mid-day with nothing in mouth one hour prior to wash. At night, the procedure was repeated as the last item before retiring.

The test system of another data set is infected torn toenail. Nature of the data set: soaking of poodle's infected paw in oxalic acid solution. Format: in vivo, dog. The following applies: 150 mg in 300 ml of distilled water, after two soakings; antibiotic also given. The text has this:
On another occasion, the inventor's pet poodle had torn a toenail which became infected. The infection was in an advanced stage which was extremely sensitive and the poodle would not use the leg while walking. The poodle was examined by the veterinarian, received an injection of a antibiotic, and oral capsules were to be given.

Another data set has as its system low red blood cell count. Nature of the data set: vitamin B6 pills in woman with low red blood cell count. Format: in vivo, human. The following applies: 50 mg pills, one a day first week then every other day; three weeks. The source says: After retirement, Turk's owner was planning to move and some friends stopped by to visit. One evening while having cocktails with the friends, they began talking about health and age, etc. […] Turk's owner's research had paid off. They gave their organic gardening magazine to the person and urged them to read the article by Judith Benn Hurley. They explained to them that the reason their red cell count was low was because of their diet. […] Their diet contained items high in oxalic acid, like spinach, their favorite salad.

In data set [10] the test system is fever, burning and irritation when urinating, back pain. Nature of the data set: vitamin B6 pills for fever, urinary irritation, back pain attributed to oxalic acid. Type of data set: in vivo, human. The method, then:
Then Turk's owner moved to Arkansas. His […], who is married and living nearby, worked at a local hospital. One day they began running a high fever in the range of 104° -106°, went home, and went straight to bed. The fever fell, and the next couple of days they returned to work only to have the fever return after a couple of hours. They went home and the cycle repeated. They mentioned this to a doctor in the emergency room and a series of tests were ordered looking for a virus, an infection, even a tubular conception. Turk's owner became involved, because after listening to long, sometimes whispered conversations between their spouse and stepdaughter, they asked what the trouble was. Their spouse explained what had happened and that the doctor was looking for some type of urinary tract or vaginal infection, but there were no positive cultures. […] Their stepdaughter was eating primarily salad bar meals loaded with oxalic acid.

Where [11] appears, read: after dose reduced to about 1 gram, then about 500 mg per day.

Regarding `O=C(O)C(=O)O` [oxalic acid dihydrate], the mouth tumor size result in the data set on melanoma (mouth tumor) is recorded as “reduced in size”. In addition, the adverse effects result in data set [1] was “no adverse effects”. In data set [2] (after about 30 days on the oxalic acid diet), the pain and walking entry is “no pain during physical exam and was walking normally”. Besides, in data set [2] (setting [11]), the “X-ray, area affected by the sarcoma” value is “decrease or reduction in the size of the area affected by the sarcoma” and the “X-ray, bone material” value was “increase in bone material in the area of the sarcoma”. Moreover, the “use of left hind leg” value in data set [2] (within 4 days, about 2 grams added to dry dogfood) is “lowered its left hind leg and used it frequently”.
For `O=C(O)C(=O)O` [oxalic acid, ethanedioic acid], the “soreness of throat and nose, flu virus” value in data set [3] was “completely removes all soreness of throat and nose”. Further, the “level of oxalate in the urine” value in data set [4] was around 22000 ng/mL. Also, the “tumors in lymph nodes” value in data set [5] is given as “shrinkage of tumors in the lymph nodes”. In data set [6], the “condition of gums and mouth tissue” value is on record as “remarkable improvement”; the “tarter or plaque in the mouth” value is “removal of and prevention of any build up of tarter or plaque”. Also, in data set [7], the “gingivitis at follow-up exam” value is “no more evidence of gingivitis”; the “tarter and plaque at follow-up exam” value was “no tarter but moderate plaque remained”. Moreover, the “stability of solutions to radiation” value in [8] was “decomposed by radiation”. In addition, in [9], the “death after ingestion, as early as” value is 3 min and the “death after ingestion, as late as” value is on record as 14 days. Also, the “effects of the viral pneumonia” value in the data set with viral pneumonia is on record as “nearly complete relief”. The “infection of the paw” value in the data set on infected torn toenail is reported as “improved dramatically”.
In the case of `Cc1ncc(CO)c(CO)c1O.Cl` [vitamin B6, pyridoxine hydrochloride], the “outcome, surgery delayed by low red cell count” value in the data set on low red blood cell count is “doctor had just scheduled their operation”. The symptoms entry in data set [10] (after the third day) was “all symptoms were gone”. Further, the “back pain without muscle or spine problems” value in data set [10] (other people) is recorded as “found relief”. The fever entry in [10] (two pills, one after twelve hours, then one a day, in two days) is “fever was gone”.
